Assays:
OATP1B3 = biological target: T1, OATP1B3 (Homo sapiens, UniProt Q9NPD5); test: Uptake into stable transfected OATP1B3 HEK 293 cells; format: cell-based; details: for Uptake into OATP1B3-HEK 293 cells: 40 min incubation, relative to RC1 (Gd-EOB-DTPA); for Inhibition Rifampicine: uptake into OATP1B3-HEK 293 cells
T1 sequence (Q9NPD5 1-702): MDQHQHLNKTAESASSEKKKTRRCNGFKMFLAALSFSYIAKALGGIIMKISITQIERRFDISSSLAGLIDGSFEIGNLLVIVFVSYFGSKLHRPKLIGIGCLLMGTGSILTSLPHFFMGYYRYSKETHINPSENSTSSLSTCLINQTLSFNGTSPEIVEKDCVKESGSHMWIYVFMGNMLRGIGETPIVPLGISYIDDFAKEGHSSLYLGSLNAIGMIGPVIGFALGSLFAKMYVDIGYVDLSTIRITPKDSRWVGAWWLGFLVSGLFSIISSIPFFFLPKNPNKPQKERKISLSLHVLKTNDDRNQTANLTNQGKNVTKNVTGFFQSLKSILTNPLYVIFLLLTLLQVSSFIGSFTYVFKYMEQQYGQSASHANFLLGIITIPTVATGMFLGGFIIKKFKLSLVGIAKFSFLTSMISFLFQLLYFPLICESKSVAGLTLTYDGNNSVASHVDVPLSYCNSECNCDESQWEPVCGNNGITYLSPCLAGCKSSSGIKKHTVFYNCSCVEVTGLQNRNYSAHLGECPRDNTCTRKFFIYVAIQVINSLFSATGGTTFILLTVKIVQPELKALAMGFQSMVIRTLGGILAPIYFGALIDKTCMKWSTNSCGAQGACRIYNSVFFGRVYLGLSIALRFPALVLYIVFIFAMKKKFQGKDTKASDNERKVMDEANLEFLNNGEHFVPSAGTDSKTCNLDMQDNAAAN
Method: (§1) Cryopreserved cells were shortly thawed in water bath and diluted in 10 mL warm culture medium (37° C.). After medium change the cells were grown for 3d in a 25 cm^2 cell culture flask. After 3 to 5d the cells were transferred into 75 cm^2 flasks. […] All test items were prepared in transport buffer at a final concentration of 100 µM from stock solutions (180 to 500 mM concentration). The OATP1B3 HEK 293 cells were incubated with test solutions (test item in transport buffer 500 μL) for 40 min on a thermoshaker without shaking (PHMP, Fa. Grant Bio). Triplicates were performed for each test item. After incubation the cells were washed with 2 mL of cold PBS (+) buffer (Dulbeccos PBS+, Fa. Gibco). […] As a reference standard Gd-EOB-DTPA (gadoxetate) is used in the same well plate.

OATP1B1 = biological target: T2, OATP1B1 (Homo sapiens, UniProt Q9Y6L6); test: Uptake into stable transfected OATP1B1 HEK 293 cells; format: cell-based; details: for Uptake into OATP1B1-HEK 293 cells: 40 min incubation, relative to RC1 (Gd-EOB-DTPA); for Inhibition Rifampicine: uptake into OATP1B1-HEK 293 cells
T2 sequence (Q9Y6L6 1-691): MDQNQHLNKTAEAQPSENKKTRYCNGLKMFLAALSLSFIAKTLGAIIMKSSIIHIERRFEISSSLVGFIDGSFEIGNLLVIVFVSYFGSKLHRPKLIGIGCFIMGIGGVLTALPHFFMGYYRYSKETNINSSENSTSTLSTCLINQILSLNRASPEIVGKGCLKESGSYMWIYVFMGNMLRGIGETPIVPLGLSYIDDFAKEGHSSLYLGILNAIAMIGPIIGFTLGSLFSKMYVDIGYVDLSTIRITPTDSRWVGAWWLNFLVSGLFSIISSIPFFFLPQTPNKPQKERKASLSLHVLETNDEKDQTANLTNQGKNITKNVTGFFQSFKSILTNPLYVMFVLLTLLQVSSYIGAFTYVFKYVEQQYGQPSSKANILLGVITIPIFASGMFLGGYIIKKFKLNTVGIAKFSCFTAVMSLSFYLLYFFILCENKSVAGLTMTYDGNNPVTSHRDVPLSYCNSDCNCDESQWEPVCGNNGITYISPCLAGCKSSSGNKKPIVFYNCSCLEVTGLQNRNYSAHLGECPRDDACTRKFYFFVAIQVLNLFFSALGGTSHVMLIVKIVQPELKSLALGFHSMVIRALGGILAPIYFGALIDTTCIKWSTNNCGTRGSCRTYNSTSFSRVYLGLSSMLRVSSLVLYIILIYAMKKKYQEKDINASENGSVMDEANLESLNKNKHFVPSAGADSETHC
Method: as §1, with “M” for “µM”, “OATP1B1” for “OATP1B3”, “L)” for “μL)”

[1] = Partition coefficient (log P butanol/buffer); format: physicochemical; details: 1-butanol / 50 mM Tris-HCl, pH 7.4, room temperature
[2] = Relaxivity measurements at 1.41 T in human plasma; format: physicochemical; details: 37° C., normalized to Gd
Method: (§2) The T1 relaxation times were determined using the standard inversion recovery (IR) method with a fixed relaxation delay of at least 5×T1. The variable inversion time (TI) was calculated automatically by the standard software of the MiniSpec mq60 (8 steps). The T2 measurements were performed by using a Carr-Purcell-Meiboom-Gill (CPMG) pulse sequence, applying a relaxation delay of at least 5×T1.
Each relaxivity measurement was performed using three different Gd concentrations (3 concentrations between 0.05 and 2 mM).
(§3) The relaxivities n (where i=1, 2) were calculated based on the measured relaxation rates Ri in water and plasma: […]

[3] = test system: freshly isolated rat hepatocytes; test: Uptake into freshly isolated rat hepatocytes; details: for Uptake rat hepatocytes: 100 μmol Gd/L, 10 min, 37° C., relative to RC1 (Gd-EOB-DTPA); for Inhibition Rifampicine: rat hepatocyte uptake, test item and Rifampicine 1:1, each 100 μM
[4] = Relaxivity measurements at 1.41 T in water; format: physicochemical; details: 37° C., normalized to Gd
Method: as §2, with “Relaxivity measurements at 1.41 T were performed using a MiniSpec mq60 spectrometer (Bruker Analytik, Karlsruhe, Germany) operating at a resonance frequency of 60 MHz and a temperature of 37° C. The T1” for “The T1”
Each relaxivity measurement was performed using three different Gd concentrations (3 concentrations between 0.05 and 2 mM). […] Human plasma preparation: For each experiment fresh blood was taken from a volunteer using 10 mL citrate-tubes (Sarstedt S-Monovette 02.1067.001, 10 mL, Citrate). The 10 mL citrate-tubes were carefully inverted 10 times to mix blood and anticoagulant and centrifuged for 15 min at 1811 g at RT (Eppendorf, Centrifuge 5810R).
as §3

[5] = Water solubility in aqueous buffer; details: aqueous buffer 10 mM Tris-HCl, pH 7.4, 20° C.
Method: The solid compounds were added stepwise to the buffer solution. More substance is added once all the suspended material is dissolved until an equilibrium between undissolved and dissolved substance is reached. The suspension was mixed using a shaker (Heidolph Reax 2000) and treated 5 min in an ultrasound bath (Bandelin, Sonorex Super RK255H).

CCOCCOCCOCCOc1ccc(C[C@@H](C(=O)O)N2CCN(CC(=O)[O-])CCN(CC(=O)[O-])CCN(CC(=O)[O-])CC2)cc1.[Gd+3] [Example 11, gadolinium 2,2′,2″-{10-[(1S)-1-carboxy-2-(4-{2-[2-(2-ethoxyethoxy)ethoxy]ethoxy}phenyl)ethyl]-1,4,7,10-tetraazacyclododecane-1,4,7-triyl}triacetate]
Uptake into OATP1B3-HEK 293 cells (OATP1B3): 16 % of RC1 | Inhibition Rifampicine (OATP1B3): 73 % inhibition | Uptake into OATP1B1-HEK 293 cells (OATP1B1): 154 % of RC1 | Inhibition Rifampicine (OATP1B1): 40 % inhibition | Log P (partition coefficient butanol/buffer) [1]: −1.68 | r1 human plasma [2]: 6.3 L/mmol/s | Uptake rat hepatocytes [3]: 39 % of RC1 | Inhibition Rifampicine [3]: 93 % inhibition | r1 water [4]: 4.3 L/mmol/s

CCOCCOCCOc1ccc(CCC[C@@H](C(=O)O)N2CCN([C@H](CO)C(=O)[O-])CCN([C@H](CO)C(=O)[O-])CCN([C@@H](CO)C(=O)[O-])CC2)cc1.[Gd+3] [Example 49, gadolinium (2R,2′R)-2,2′-{7-[(1S)-1-carboxy-4-{4-[2-(2-ethoxyethoxy)ethoxy]phenyl}butyl]-10-[(1S)-1-carboxylato-2-hydroxyethyl]-1,4,7,10-tetraazacyclododecane-1,4-diyl}bis(3-hydroxypropanoate)]
Inhibition Rifampicine (OATP1B3): 94 % inhibition | Inhibition Rifampicine (OATP1B1): 71 % inhibition | Solubility [5]: >0.018 mol/L

CCOCCOCCOc1ccc(CCC[C@@H](C(=O)O)N2CCN([C@H](CO)C(=O)[O-])CCN([C@@H](CO)C(=O)[O-])CCN([C@@H](CO)C(=O)[O-])CC2)cc1.[Gd+3] [Example 50, gadolinium (2S,2'S)-2,2′-{7-[(1S)-1-carboxy-4-{4-[2-(2-ethoxyethoxy)ethoxy]phenyl}butyl]-10-[(1R)-1-carboxylato-2-hydroxyethyl]-1,4,7,10-tetraazacyclododecane-1,4-diyl}bis(3-hydroxypropanoate)]
Inhibition Rifampicine (OATP1B3): 93 % inhibition | Inhibition Rifampicine (OATP1B1): 84 % inhibition | Solubility [5]: >0.019 mol/L

CCOCCOCCOCCOc1ccc(C[C@@H](C(=O)O)N2CCN(CC(=O)[O-])CCN(CC(=O)[O-])CCN(CC(=O)[O-])CC2)c(OCCOCCOCCOCC)c1.[Gd+3] [Example 40, gadolinium 2,2′,2″-{10-[(1S)-2-(2,4-bis {2-[2-(2-ethoxyethoxy)ethoxy]ethoxy}phenyl)-1-carboxyethyl]-1,4,7,10-tetraazacyclododecane-1,4,7-triyl}triacetate]
Log P (partition coefficient butanol/buffer) [1]: −1.43 | r1 human plasma [2]: 7.3 L/mmol/s | Uptake rat hepatocytes [3]: 20 % of RC1 | Inhibition Rifampicine [3]: 88 % inhibition | r1 water [4]: 5.4 L/mmol/s

CCOc1ccc(CCCC[C@@H](C(=O)O)N2CCN(CC(=O)[O-])CCN(CC(=O)[O-])CCN(CC(=O)[O-])CC2)cc1.[Gd+3] [Example 27, gadolinium 2,2′,2″-{10-[(1S)-1-carboxy-5-(4-ethoxyphenyl)pentyl]-1,4,7,10-tetraazacyclo-dodecane-1,4,7-triyl}triacetate]
Uptake into OATP1B3-HEK 293 cells (OATP1B3): 24 % of RC1 | Inhibition Rifampicine (OATP1B3): 96 % inhibition | Uptake into OATP1B1-HEK 293 cells (OATP1B1): 284 % of RC1 | Inhibition Rifampicine (OATP1B1): 93 % inhibition | Solubility [5]: >0.009 mol/L | Log P (partition coefficient butanol/buffer) [1]: −0.41 | Uptake rat hepatocytes [3]: 69 % of RC1 | Inhibition Rifampicine [3]: 98 % inhibition

CCOCCOCCOCCOc1ccc(C[C@H](C(=O)O)N2CCN(CC(=O)[O-])CCN(CC(=O)[O-])CCN(CC(=O)[O-])CC2)cc1.[Gd+3] [Example 12, gadolinium 2,2′,2″-{10-[(1R)-1-carboxy-2-(4-{2-[2-(2-ethoxyethoxy)ethoxy]ethoxy}phenyl)ethyl]-1,4,7,10-tetraazacyclododecane-1,4,7-triyl}triacetate]
Uptake into OATP1B3-HEK 293 cells (OATP1B3): 24 % of RC1 | Inhibition Rifampicine (OATP1B3): 87 % inhibition | Uptake into OATP1B1-HEK 293 cells (OATP1B1): 86 % of RC1 | Inhibition Rifampicine (OATP1B1): 0 % inhibition | Log P (partition coefficient butanol/buffer) [1]: −1.68 | r1 human plasma [2]: 6.6 L/mmol/s | Uptake rat hepatocytes [3]: 53 % of RC1 | Inhibition Rifampicine [3]: 97 % inhibition | r1 water [4]: 4.3 L/mmol/s

CCCCOc1ccc(CCCC[C@@H](C(=O)O)N2CCN([C@@H](CO)C(=O)[O-])CCN([C@@H](CO)C(=O)[O-])CCN([C@@H](CO)C(=O)[O-])CC2)cc1.[Gd+3] [Example 9, gadolinium (2S,2′S,2″S)-2,2′,2″-{10-[(1S)-5-(4-butoxyphenyl)-1-carboxypentyl]-1,4,7,10-tetraazacyclododecane-1,4,7-triyl}tris(3-hydroxypropanoate)]
Uptake into OATP1B3-HEK 293 cells (OATP1B3): 124 % of RC1 | Inhibition Rifampicine (OATP1B3): 95 % inhibition | Uptake into OATP1B1-HEK 293 cells (OATP1B1): 498 % of RC1 | Inhibition Rifampicine (OATP1B1): 73 % inhibition | Solubility [5]: 0.002 mol/L | Log P (partition coefficient butanol/buffer) [1]: 0.26 | Uptake rat hepatocytes [3]: 54 % of RC1 | Inhibition Rifampicine [3]: 46 % inhibition

Reference: patent US20260083864A1, “CONTRAST AGENTS FOR USE IN DIAGNOSTIC COMPUTED TOMOGRAPHY IMAGING” (Bayer Aktiengesellschaft, priority 2022, published 2026)
